# Data taken from US7411069B2 (Hypnion, Inc., priority 2003, dated 2008).
# Where two headings read alike, the source gives them in different places.
# Legend:
# [1] = molecular target: T1, M2 muscarinic receptor (Homo sapiens, UniProt P08172); experiment: M2 binding assay ([3H]-scopolamine, N-methyl chloride displacement)
# T1 construct: purchased PerkinElmer, Inc., Wellesley, Mass; host or cells: CHO cells
# T1 sequence (P08172 1-466): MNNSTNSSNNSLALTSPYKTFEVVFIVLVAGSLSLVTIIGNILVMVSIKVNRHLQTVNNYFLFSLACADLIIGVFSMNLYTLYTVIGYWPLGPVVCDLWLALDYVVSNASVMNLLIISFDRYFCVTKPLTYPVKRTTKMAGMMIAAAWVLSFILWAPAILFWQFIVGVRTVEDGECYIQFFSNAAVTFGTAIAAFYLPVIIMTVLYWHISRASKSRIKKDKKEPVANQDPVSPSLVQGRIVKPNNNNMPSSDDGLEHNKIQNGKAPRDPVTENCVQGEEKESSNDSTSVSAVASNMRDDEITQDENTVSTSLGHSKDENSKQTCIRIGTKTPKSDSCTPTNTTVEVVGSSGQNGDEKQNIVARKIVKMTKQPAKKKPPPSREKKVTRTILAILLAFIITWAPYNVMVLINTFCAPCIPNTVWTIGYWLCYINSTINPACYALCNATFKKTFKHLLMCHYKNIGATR
# [2] = system: purebred Beagles; experiment: Acute dog study (toxicity and MTD, escalating oral doses); type: in vivo
# [3] = system: telemetered Beagle dogs; experiment: ECG and arterial blood pressure in telemetered Beagle dogs; type: in vivo, dog
# Method: To determine if HY2901 could produce any changes in QT interval, the compound was studied in telemetered Beagle dogs. Dogs were implanted with devices to continuously monitor ECG and arterial blood pressure. Dogs (groups of 4) were studied in a Latin square cross-over design, with each dog receiving 3 different doses and a placebo. Two studies were conducted with doses of 0.3, 1, 3, 10, and 30 mg/kg. […] The tachycardia persisted for 6-8 hours postdose at 0.3 and 1 mg/kg. A ceiling effect to the heart rate increase seemed to exist with heart rates peaking at approximately 150-160 in both the 10 and 30 mg/kg dose groups.
# [4] = system: purebred Beagles; experiment: 14-Day dog study with recovery phase; type: in vivo
# Method: The toxicity and the toxicokinetics of HY2901 when administered daily via oral gavage (Phase 1) or capsules (Phase 2) to dogs for at least 14 days was determined. The reversibility, persistence, or delayed occurrence of observable effects following a 7-day (Phase 1) or 14-day (Phase 2) recovery period was also assessed. Doses of 3, 10, 30, and 70 mg/kg/day were studied.
# [5] = system: Crl: CD(SD)IGS BR rats; experiment: Acute rat study (toxicity and MTD, oral gavage); type: in vivo
# Method: The purpose of this study was to evaluate the toxicity and maximum tolerated dose (MTD) of the test articles when given via oral gavage to rats. Male Crl: CD®(SD)IGS BR rats (3/group) were assigned to 5 groups. At initiation of dosing, animals were approximately 7 weeks old with body weights ranging from 172 to 206 g. Each group received either 50, 100, 150, 200, or 250 mg/kg of HY2901 once daily for 5 days. All surviving animals were sacrificed on Day 6. Assessment of toxicity was based on mortality, clinical observations, and body weight data.
# [6] = system: Crl:CD(SD)IGS BR rats; experiment: 14-Day rat study with recovery; type: in vivo
# Method: The purpose of this study was to evaluate the toxicity of HY2901 when administered via oral gavage to rats for at least 14 days and to assess the reversibility, persistence, or delayed occurrence of any effects after a recovery period of up to 14 days.
# Male and female Crl:CD®(SD)IGS BR rats were assigned to seven groups, four main study groups and three groups for toxicokinetics. Each group received dose preparations containing 0.25% methylcellulose, 400 cps in 200 mM acetate buffer, or 10, 30, or 150 mg of test article/kg of body weight (mg/kg/day) at a dose volume of 5 mL/kg.
# Assessment of toxicity was based on mortality, clinical and ophthalmic observations, body weights, food consumption, clinical pathology, organ weights, and macroscopic and microscopic findings. Blood samples were collected for toxicokinetic evaluation.
# [7] = In vitro rate of metabolism in rat hepatocyte cultures; type: in vitro ADME
# Method: (§1) Cytochrome P450 inhibition was studied with HY2901 in vitro. […] In addition, the in vitro rate of metabolism in rat, dog, monkey, and human hepatocyte cultures was determined for HY2901.
# [8] = In vitro rate of metabolism in human hepatocyte cultures; type: in vitro ADME
# Method: as §1
# [9] = Pharmacokinetics in rats; type: in vivo, rat; conditions: 3 mg/kg
# Method: HY2901 was administered to rats, dogs, and cynomolgus monkeys at a dose of 3 mg/kg orally and intravenously. Plasma samples were collected from all species for pharmacokinetic analysis. […] HY2901 is 75% protein bound in rat plasma and 60% protein bound in human plasma.
# [10] = Excretion in urine of animal species; type: in vivo
# [11] = molecular target: T2, M3 muscarinic receptor (Homo sapiens, UniProt P20309); experiment: M3 binding assay ([3H]-scopolamine, N-methyl chloride displacement)
# T2 construct: purchased PerkinElmer, Inc., Wellesley, Mass; host or cells: CHO cells
# [12] = molecular target: T3, M1 muscarinic receptor (Homo sapiens, UniProt P11229); experiment: M1 binding assay ([3H]-scopolamine, N-methyl chloride displacement)
# T3 construct: purchased PerkinElmer, Inc., Wellesley, Mass; host or cells: CHO cells
# T3 sequence (P11229 1-460): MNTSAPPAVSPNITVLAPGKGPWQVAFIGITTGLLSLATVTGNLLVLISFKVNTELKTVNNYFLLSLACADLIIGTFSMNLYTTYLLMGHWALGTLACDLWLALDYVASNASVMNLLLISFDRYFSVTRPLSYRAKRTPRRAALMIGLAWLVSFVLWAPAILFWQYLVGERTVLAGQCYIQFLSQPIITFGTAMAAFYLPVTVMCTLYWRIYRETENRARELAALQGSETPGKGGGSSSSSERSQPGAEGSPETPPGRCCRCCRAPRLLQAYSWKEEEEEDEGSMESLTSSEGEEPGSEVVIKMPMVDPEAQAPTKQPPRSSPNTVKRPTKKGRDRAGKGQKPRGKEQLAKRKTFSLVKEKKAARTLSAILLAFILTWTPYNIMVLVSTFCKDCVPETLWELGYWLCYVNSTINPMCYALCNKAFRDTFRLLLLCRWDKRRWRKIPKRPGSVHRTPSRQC
# [13] = molecular target: hERG channel (Homo sapiens, UniProt Q12809)
# [14] = system: male Wistar rats; experiment: SCORE-2000 sleep-wakefulness, locomotor activity and body temperature monitoring; conditions: oral, CT-18
# [15] = system: male Wistar rats; type: in vivo; conditions: oral
# Method: The Irwin screen can provide useful information on potential side effects of compounds on general physiological and behavioural functions. The screen was conducted by administering the test compounds orally in 0.25% aqueous methylcellulose using male Wistar rats, a frequently used species in such studies and for which background data are readily available.
# The Irwin screen tests for numerous parameters in animals that have been administered the test compound. For example, the screen can include: in-cage effects, e.g., dispersion, respiratory rate, locomotor activity, restlessness, fighting, alertness, apathy, and exophthalmus; in-arena effects, e.g., transfer arousal, spatial locomotion, ptosis, startle, tail elevation, piloerection, touch escape, positional passivity, catalepsy, tighting reflex, visual placing, grip strength, pinna, corneal, pain response, and wire manoeuvre; parameters observed in handling, e.g., cyanosis, cutaneous blood flow, hypothermia, body tone, pupil size, light-pupil response, lacrimation, grooming, red staining, salivation, and provoked biting; general scores e.g., fearfulness, irritability, abnormal gait, abnormal body carriage, tremors, twitches, convulsions, bizarre behaviour, writhing, vocalisation, diarrhoea, number of defaecations, number of urinations, moribund, lethality, and abnormalities detected. Further details can be found in Irwin, S; Comprehensive observational assessment: I a. A systematic, quantitative procedure for assessing the behavioural and physiological state of the mouse. […]
# [16] = molecular target: T4, H1 histamine receptor (Bos taurus, UniProt P30546); conditions: reference compounds; unit inferred; read-out: Ki, H1 binding assay reference compounds; cited from earlier work
# T4 construct: the receptors were obtained from bovine cerebellar membrane tissue; from tissue; host or cells: bovine cerebellar membranes
# [17] = 50-250 mg/kg once daily for 5 days
# T2 sequence (P20309 whole entry): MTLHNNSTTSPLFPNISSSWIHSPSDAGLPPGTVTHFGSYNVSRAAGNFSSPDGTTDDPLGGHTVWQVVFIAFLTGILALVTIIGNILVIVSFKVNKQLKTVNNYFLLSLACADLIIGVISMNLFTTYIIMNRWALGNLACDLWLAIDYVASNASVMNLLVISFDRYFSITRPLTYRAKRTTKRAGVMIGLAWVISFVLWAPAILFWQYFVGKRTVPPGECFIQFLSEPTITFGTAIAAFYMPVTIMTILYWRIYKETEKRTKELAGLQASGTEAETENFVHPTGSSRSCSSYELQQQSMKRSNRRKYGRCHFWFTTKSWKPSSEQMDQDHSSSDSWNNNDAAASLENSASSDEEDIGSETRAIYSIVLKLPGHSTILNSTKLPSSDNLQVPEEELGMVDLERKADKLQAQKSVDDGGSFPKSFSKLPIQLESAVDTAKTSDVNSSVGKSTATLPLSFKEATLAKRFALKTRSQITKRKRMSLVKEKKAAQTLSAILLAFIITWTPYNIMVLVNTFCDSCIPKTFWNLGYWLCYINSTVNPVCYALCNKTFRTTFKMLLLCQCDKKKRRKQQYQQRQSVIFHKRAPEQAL
# T4 sequence (P30546 whole entry): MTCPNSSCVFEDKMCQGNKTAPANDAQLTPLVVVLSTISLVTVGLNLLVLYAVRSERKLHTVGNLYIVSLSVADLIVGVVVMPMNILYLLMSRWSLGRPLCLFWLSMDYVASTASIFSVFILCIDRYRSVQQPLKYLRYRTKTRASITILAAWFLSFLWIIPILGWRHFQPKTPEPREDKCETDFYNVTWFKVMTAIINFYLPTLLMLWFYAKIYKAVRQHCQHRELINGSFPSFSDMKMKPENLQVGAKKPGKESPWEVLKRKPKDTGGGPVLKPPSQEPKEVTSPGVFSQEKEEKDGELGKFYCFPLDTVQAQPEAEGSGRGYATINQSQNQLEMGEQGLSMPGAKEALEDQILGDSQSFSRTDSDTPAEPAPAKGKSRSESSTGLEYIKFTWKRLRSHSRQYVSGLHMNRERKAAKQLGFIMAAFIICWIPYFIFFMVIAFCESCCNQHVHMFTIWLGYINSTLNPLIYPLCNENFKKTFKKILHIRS
# Sequence of hERG channel (Q12809 whole entry): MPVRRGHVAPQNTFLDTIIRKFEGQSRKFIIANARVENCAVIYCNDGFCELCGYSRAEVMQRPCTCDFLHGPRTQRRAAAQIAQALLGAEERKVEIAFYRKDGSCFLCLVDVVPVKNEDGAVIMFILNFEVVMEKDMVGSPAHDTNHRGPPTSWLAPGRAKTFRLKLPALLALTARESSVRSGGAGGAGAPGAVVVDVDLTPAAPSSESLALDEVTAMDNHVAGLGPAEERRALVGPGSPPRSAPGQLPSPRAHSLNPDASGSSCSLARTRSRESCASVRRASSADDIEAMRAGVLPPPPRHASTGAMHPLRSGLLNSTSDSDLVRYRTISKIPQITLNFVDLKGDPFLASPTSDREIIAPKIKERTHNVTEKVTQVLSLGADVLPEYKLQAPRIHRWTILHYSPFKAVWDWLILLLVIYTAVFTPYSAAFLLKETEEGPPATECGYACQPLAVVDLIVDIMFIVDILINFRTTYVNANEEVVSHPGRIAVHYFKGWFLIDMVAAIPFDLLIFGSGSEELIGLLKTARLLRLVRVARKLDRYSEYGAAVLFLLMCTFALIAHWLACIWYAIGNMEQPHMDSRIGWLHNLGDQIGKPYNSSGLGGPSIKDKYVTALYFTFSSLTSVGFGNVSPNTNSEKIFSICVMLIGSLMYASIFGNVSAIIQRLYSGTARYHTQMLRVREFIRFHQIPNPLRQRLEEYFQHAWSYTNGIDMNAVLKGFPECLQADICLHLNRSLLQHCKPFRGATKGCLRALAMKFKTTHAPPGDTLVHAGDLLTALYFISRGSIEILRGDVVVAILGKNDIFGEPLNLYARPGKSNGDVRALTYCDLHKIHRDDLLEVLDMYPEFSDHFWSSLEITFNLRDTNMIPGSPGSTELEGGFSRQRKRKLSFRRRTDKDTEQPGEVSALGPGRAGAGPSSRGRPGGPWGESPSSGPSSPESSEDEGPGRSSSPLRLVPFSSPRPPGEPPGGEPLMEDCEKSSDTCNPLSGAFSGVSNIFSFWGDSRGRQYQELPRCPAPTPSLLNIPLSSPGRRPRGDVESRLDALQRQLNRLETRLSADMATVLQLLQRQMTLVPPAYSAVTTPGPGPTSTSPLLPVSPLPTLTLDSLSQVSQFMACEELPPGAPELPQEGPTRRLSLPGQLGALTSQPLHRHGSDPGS
smiles,measurement,setting,value
"C[N+]1(C)C2CC(OC(=O)C(CO)c3ccccc3)CC1C1OC12.[Br-] (single isomer, unassigned; (-)) [scopolamine, MethylBr, (−)-scopolamine, methyl-, bromide, reference compound]","Slope, M2 binding curve",[1],−0.89
CC(C)(CN1CCC(=C2c3ccc(F)cc3COc3ccccc32)CC1)C(=O)O [Compound 49a],clinical signs,[2]; 25 mg/kg,No clinical signs of toxicity
same,clinical signs,[2]; 40 mg/kg on Day 5,"body tremors, mild to moderate ataxia, excessive salivation and hypoactivity"
same,clinical signs,[2]; 50 mg/kg,"Body tremors, mild to severe ataxia, and hypoactivity"
same,clinical signs,[2]; 75 mg/kg,"Tremors (entire body, hind limbs, and/or head), mild to moderate ataxia, hypoactivity"
same,effect on body weight,"[2]; dog, in vivo",minimal effect
same,changes in QT or corrected QT interval,"[3]; 0.3, 1, 3, 10 and 30 mg/kg, any dose",no changes
same,heart rate effect,"[3]; 0.3-30 mg/kg, intravenous or oral",dose-related sinus tachycardia
same,persistence of tachycardia postdose,[3]; 0.3 and 1 mg/kg,6 to 8 h
same,peak heart rate,[3]; 10 and 30 mg/kg dose groups,150-160
same,persistence of sinus tachycardia,[3]; higher doses,10 to 12 h
same,blood pressure,[3]; paralleled the tachycardia,slight increase
same,clinical observations,"[4]; 3 mg/kg/day, Phase 1",no treatment-related clinical observations
same,survival,"[4]; Beagle, dog, in vivo, 14 days",survived until scheduled sacrifice
same,clinical pathology data,[4]; Phase 1 and 2,no evidence in the clinical laboratory data of an effect
same,clinical observations,[4]; Phase 2,"treatment-related head tremors, ataxia, hypoactivity, and excessive salivation"
same,hypoactivity,[5]; [17],observed in all rats
same,incidence and duration of ataxia,[5]; [17],dose-response relationship was observed
same,Day 6 body weights,[5]; two 250 mg/kg rats,slightly decreased
same,food consumption,"[6]; 150 mg/kg/day rats, Week 1",depression in food consumption
same,unscheduled deaths,"[6]; 10, 30, 150 mg/kg/day",largely restricted to the 150 mg/kg/day groups
same,increases in Cmax and AUC(0-t) with dose,"[6]; 10 to 150 mg/kg/day, except Cmax at 150 mg/kg/day on Day 14",greater than dose proportional
same,ophthalmic observations,[6]; any group,No ophthalmic lesions
same,metabolism by hepatocytes,[7],extensively metabolized
same,metabolism by hepatocytes,[8],little metabolism
same,absorption after oral administration,"[9]; all species (rat, dog, cynomolgus monkey)",rapidly and highly absorbed
same,Peak plasma levels,"[9]; rats, most efficacious dose in the sleep assay",less than 1.5 mM
same,drug and metabolites in urine,[10],"Unchanged HY2901, as well as metabolites, has been found in the urine"
CC(C)(CN1CCC(=C2c3ccccc3COc3ccccc32)CC1)C(=O)O [Compound 69a],Ki,[11],> 10 µM
same,Ki,[1],> 10 µM
same,Ki,[12],> 10 µM
CC(C)(CCN1CCC(=C2c3ccccc3COc3ccccc32)CC1)C(=O)O [Compound 70a],Ki,[11],> 10 µM
O=C(O)C1(CCN2CCC(=C3c4ccccc4COc4ccccc43)CC2)CC1 [Compound 70b],hERG blocking,[13],50.2%
same,LUSB,[14]; dose 10 mg/kg,8.3 min
same,NREM,[14]; dose 10 mg/kg,33.7 min
same,LUSB,[14]; dose 30 mg/kg,13.8 min
same,NREM,[14]; dose 30 mg/kg,43.2 min
same,Side effects in Irwin screen,[15]; 10 mg/kg dose,clean
same,Side effects in Irwin screen,[15]; 30 mg/kg dose,clean
same,Side effects in Irwin screen,[15]; 100 mg/kg dose,some side effects
CN(C)CCCSC(=N)N [dimaprit],Ki,[16],> 10 µM
